Data: US11117900B2 (Vertex Pharmaceuticals Incorporated, priority 2012, dated 2021)

Tested on: HCT116 colorectal cancer cells
Experiment: Cisplatin sensitization assay (96 h MTS cell viability);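 also: compound concentration needed to lower the IC50 of Cisplatin alone by a set fold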
Assay type: cell-based
Settings: Cisplatin sensitization value
Procedure, shortened: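 HCT116 cells were dosed simultaneously with compound and cisplatin as a full matrix of 2-fold serial dilutions from 10 μM top final concentration. Incubation was 96 h at 37° C., 5% CO2, followed by 1 h with MTS reagent for the viability read-out. Sensitization values were binned into +++, ++ and + categories.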

Row | Compound | Cisplatin Sensitization Assay
1 | CC1CN(C)CCN1c1ccncc1NC(=O)c1c(N)nn2cc(Cl)cnc12 (centres unmarked) [I-N-72, 2-amino-6-chloro-N-(4-(2,4-dimethylpiperazin-1-yl)pyridin-3-yl)pyrazolo[1,5-a]pyrimidine-3-carboxamide] | +++ (Compounds with a Cisplatin sensitization value of <0.02 μM are marked with “+++.”)
2 | CC(C)(O)C1CCN(c2ccncc2NC(=O)c2c(N)nn3cc(Cl)cnc23)CC1 [I-N-69, 2-amino-6-chloro-N-(4-(4-(2-hydroxypropan-2-yl)piperidin-1-yl)pyridin-3-yl)pyrazolo[1,5-a]pyrimidine-3-carboxamide] | +++ (Compounds with a Cisplatin sensitization value of <0.02 μM are marked with “+++.”)
3 | Nc1nn2cc(F)cnc2c1C(=O)Nc1cnccc1N1CCC(S(=O)(=O)C2COC2)CC1 [I-N-200, 2-amino-6-fluoro-N-(4-(4-(oxetan-3-ylsulfonyl)piperidin-1-yl)pyridin-3-yl)pyrazolo[1,5-a]pyrimidine-3-carboxamide] | +++ (Compounds with a Cisplatin sensitization value of <0.02 μM are marked with “+++.”)
4 | Nc1nn2cc(F)cnc2c1C(=O)Nc1cncc(F)c1N1CCN2CCOC[C@H]2C1 [I-N-135, (R)-2-amino-6-fluoro-N-(5-fluoro-4-(hexahydropyrazino[2,1-c][1,4]oxazin-8(1H)-yl)pyridin-3-yl)pyrazolo[1,5-a]pyrimidine-3-carboxamide] | +++ (Compounds with a Cisplatin sensitization value of <0.02 μM are marked with “+++.”)
5 | Nc1nn2cc(F)cnc2c1C(=O)Nc1cnccc1-c1ccnnc1 [I-C-26, 2-amino-6-fluoro-N-(4-(pyridazin-4-yl)pyridin-3-yl)pyrazolo[1,5-a]pyrimidine-3-carboxamide] | ++ (Compounds with a Cisplatin sensitization value >0.02 μM but <0.2 μM are marked with “++.”)
6 | Nc1nn2cc(Cl)cnc2c1C(=O)Nc1cnccc1N1CCN(C2CCC2)CC1 [I-N-48, 2-amino-6-chloro-N-(4-(4-cyclobutylpiperazin-1-yl)pyridin-3-yl)pyrazolo[1,5-a]pyrimidine-3-carboxamide] | ++ (Compounds with a Cisplatin sensitization value >0.02 μM but <0.2 μM are marked with “++.”)
7 | CNC1CCN(c2ccncc2NC(=O)c2c(N)nn3cc(Cl)cnc23)CC1 [I-N-87, 2-amino-6-chloro-N-(4-(4-(methylamino)piperidin-1-yl)pyridin-3-yl)pyrazolo[1,5-a]pyrimidine-3-carboxamide] | ++ (Compounds with a Cisplatin sensitization value >0.02 μM but <0.2 μM are marked with “++.”)
8 | N#CCc1cnc2c(C(=O)Nc3cnccc3N3CCC(O)CC3)c(N)nn2c1 [I-N-83, 2-amino-6-(cyanomethyl)-N-(4-(4-hydroxypiperidin-1-yl)pyridin-3-yl)pyrazolo[1,5-a]pyrimidine-3-carboxamide] | ++ (Compounds with a Cisplatin sensitization value >0.02 μM but <0.2 μM are marked with “++.”)
9 | Nc1nn2cc(F)cnc2c1C(=O)Nc1cncc(F)c1N1CCC(C(=O)N2CCNCC2)CC1 [I-G-12, 2-amino-6-fluoro-N-(5-fluoro-4-(4-(piperazine-1-carbonyl)piperidin-1-yl)pyridin-3-yl)pyrazolo[1,5-a]pyrimidine-3-carboxamide] | +++ (Compounds with a Cisplatin sensitization value of <0.02 μM are marked with “+++.”)
10 | Nc1nn2cc(F)cnc2c1C(=O)Nc1cncc(F)c1N1CCN(S(=O)(=O)C2CCOCC2)CC1 [I-N-158, 2-amino-6-fluoro-N-(5-fluoro-4-(4-((tetrahydro-2H-pyran-4-yl)sulfonyl)piperazin-1-yl)pyridin-3-yl)pyrazolo[1,5-a]pyrimidine-3-carboxamide] | +++ (Compounds with a Cisplatin sensitization value of <0.02 μM are marked with “+++.”)
11 | Nc1nn2cc(F)cnc2c1C(=O)Nc1cnccc1N1CCC(C(=O)N2CC(F)C2)CC1 [I-G-82, 2-amino-6-fluoro-N-(4-(4-(3-fluoroazetidine-1-carbonyl)piperidin-1-yl)pyridin-3-yl)pyrazolo[1,5-a]pyrimidine-3-carboxamide] | +++ (Compounds with a Cisplatin sensitization value of <0.02 μM are marked with “+++.”)
12 | COC1CN(C(=O)C2CCN(c3ccncc3NC(=O)c3c(N)nn4cc(F)cnc34)CC2)C1 [I-G-78, 2-amino-6-fluoro-N-(4-(4-(3-methoxyazetidine-1-carbonyl)piperidin-1-yl)pyridin-3-yl)pyrazolo[1,5-a]pyrimidine-3-carboxamide] | +++ (Compounds with a Cisplatin sensitization value of <0.02 μM are marked with “+++.”)
13 | CC(C)N1CCN(c2ccncc2NC(=O)c2c(N)nn3cc(Cl)cnc23)CC1 [I-N-39, 2-amino-6-chloro-N-(4-(4-isopropylpiperazin-1-yl)pyridin-3-yl)pyrazolo[1,5-a]pyrimidine-3-carboxamide] | ++ (Compounds with a Cisplatin sensitization value >0.02 μM but <0.2 μM are marked with “++.”)
14 | Nc1nn2cc(F)cnc2c1C(=O)Nc1cnccc1N1CCC2(CC1)COC2 [I-N-226, N-(4-(2-oxa-7-azaspiro[3.5]nonan-7-yl)pyridin-3-yl)-2-amino-6-fluoropyrazolo[1,5-a]pyrimidine-3-carboxamide] | +++ (Compounds with a Cisplatin sensitization value of <0.02 μM are marked with “+++.”)
15 | CC1CN(c2ccncc2NC(=O)c2c(N)nn3cc(Cl)cnc23)CCN1C (centres unmarked) [I-N-54, 2-amino-6-chloro-N-(4-(3,4-dimethylpiperazin-1-yl)pyridin-3-yl)pyrazolo[1,5-a]pyrimidine-3-carboxamide] | +++ (Compounds with a Cisplatin sensitization value of <0.02 μM are marked with “+++.”)
16 | Nc1nn2cc(F)cnc2c1C(=O)Nc1cnccc1OC1CCN(C2COC2)CC1 [I-O-11, 2-amino-6-fluoro-N-(4-((1-(oxetan-3-yl)piperidin-4-yl)oxy)pyridin-3-yl)pyrazolo[1,5-a]pyrimidine-3-carboxamide] | +++ (Compounds with a Cisplatin sensitization value of <0.02 μM are marked with “+++.”)
17 | Nc1nn2cc(F)cnc2c1C(=O)Nc1cnccc1C1CCN(S(=O)(=O)C2CC2)CC1 [I-C-47, 2-amino-N-(4-(1-(cyclopropylsulfonyl)piperidin-4-yl)pyridin-3-yl)-6-fluoropyrazolo[1,5-a]pyrimidine-3-carboxamide] | +++ (Compounds with a Cisplatin sensitization value of <0.02 μM are marked with “+++.”)
18 | Nc1nn2cc(F)cnc2c1C(=O)Nc1cncc(F)c1N1CCC(C(=O)N2CC(F)(F)C2)CC1 [I-G-73, 2-amino-N-(4-(4-(3,3-difluoroazetidine-1-carbonyl)piperidin-1-yl)-5-fluoropyridin-3-yl)-6-fluoropyrazolo[1,5-a]pyrimidine-3-carboxamide] | +++ (Compounds with a Cisplatin sensitization value of <0.02 μM are marked with “+++.”)
19 | CN1CCCN(c2ccncc2NC(=O)c2c(N)nn3cc(Cl)cnc23)CC1 [I-N-43, 2-amino-6-chloro-N-(4-(4-methyl-1,4-diazepan-1-yl)pyridin-3-yl)pyrazolo[1,5-a]pyrimidine-3-carboxamide] | ++ (Compounds with a Cisplatin sensitization value >0.02 μM but <0.2 μM are marked with “++.”)
20 | CNc1cc(OC)c(NC(=O)c2c(N)nn3cc(F)cnc23)cn1 [I-O-90, 2-amino-6-fluoro-N-(4-methoxy-6-(methylamino)pyridin-3-yl)pyrazolo[1,5-a]pyrimidine-3-carboxamide] | + (Compounds with a Cisplatin sensitization value >0.2 μM but <5 μM are marked with “+.”)
21 | CN1CC[C@@H](OC2CCN(c3c(F)cncc3NC(=O)c3c(N)nn4cc(F)cnc34)CC2)C1 [I-N-132, (R)-2-amino-6-fluoro-N-(5-fluoro-4-(4-((1-methylpyrrolidin-3-yl)oxy)piperidin-1-yl)pyridin-3-yl)pyrazolo[1,5-a]pyrimidine-3-carboxamide] | +++ (Compounds with a Cisplatin sensitization value of <0.02 μM are marked with “+++.”)
22 | CCOc1ccncc1NC(=O)c1c(N)nn2cc(F)cnc12 [I-O-14, 2-amino-N-(4-ethoxypyridin-3-yl)-6-fluoropyrazolo[1,5-a]pyrimidine-3-carboxamide] | +++ (Compounds with a Cisplatin sensitization value of <0.02 μM are marked with “+++.”)
23 | CN1CCC(c2c(F)cncc2NC(=O)c2c(N)nn3cc(F)cnc23)CC1 [I-C-14, 2-amino-6-fluoro-N-(5-fluoro-4-(1-methylpiperidin-4-yl)pyridin-3-yl)pyrazolo[1,5-a]pyrimidine-3-carboxamide] | + (Compounds with a Cisplatin sensitization value >0.2 μM but <5 μM are marked with “+.”)
24 | CCn1cncc1-c1ccncc1NC(=O)c1c(N)nn2cc(F)cnc12 [I-C-80, 2-amino-N-(4-(1-ethyl-1H-imidazol-5-yl)pyridin-3-yl)-6-fluoropyrazolo[1,5-a]pyrimidine-3-carboxamide] | +++ (Compounds with a Cisplatin sensitization value of <0.02 μM are marked with “+++.”)
25 | Cc1ccncc1NC(=O)c1c(N)nn2cc(F)cnc12 [I-C-4, 2-amino-6-fluoro-N-(4-methylpyridin-3-yl)pyrazolo[1,5-a]pyrimidine-3-carboxamide] | ++ (Compounds with a Cisplatin sensitization value >0.02 μM but <0.2 μM are marked with “++.”)
26 | CN1CCN(c2ccncc2NC(=O)c2c(N)nn3cc(C(C)(C)C#N)cnc23)CC1 [I-N-76, 2-amino-6-(2-cyanopropan-2-yl)-N-(4-(4-methylpiperazin-1-yl)pyridin-3-yl)pyrazolo[1,5-a]pyrimidine-3-carboxamide] | +++ (Compounds with a Cisplatin sensitization value of <0.02 μM are marked with “+++.”)
